# “And” between values parts separate entries of the source, which are not always exact repeats. Identical values can stand only once. “Also recorded” adds a separate entry of the source. Like-named read-outs stand apart in the source and are kept apart here.
# How the values were obtained:
# [1] = molecular target: T1, ORF3a viroporin of SARS-CoV-2 (Severe acute respiratory syndrome coronavirus 2, UniProt P0DTC3); conditions: for activity against ORF3a (ORF3a-induced cytotoxicity): cell viability assay, result in words
# [2] = test system: ORF3a of SARS-CoV; conditions: Xenopus oocytes; cited from earlier work
# [3] = molecular target: T2, ORF3a channel of SARS-CoV-2 (Severe acute respiratory syndrome coronavirus 2, UniProt P0DTC3); assay: cell-based; conditions: for IC50: whole-cell currents, current differences at −60 mV, read-out: IC50, patch-clamp
# T2 sequence (P0DTC3 1-275): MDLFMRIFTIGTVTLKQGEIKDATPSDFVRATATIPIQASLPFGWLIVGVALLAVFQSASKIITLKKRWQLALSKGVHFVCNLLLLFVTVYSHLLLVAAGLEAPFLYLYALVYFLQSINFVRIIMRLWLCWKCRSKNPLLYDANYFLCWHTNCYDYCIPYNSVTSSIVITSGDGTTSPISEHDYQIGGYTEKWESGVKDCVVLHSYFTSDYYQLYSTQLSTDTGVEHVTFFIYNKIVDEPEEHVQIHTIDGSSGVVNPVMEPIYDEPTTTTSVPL
# [4] = test system: HEK293 cells; assay: MTT cell viability assay of control cells transfected with empty vector; assay type: cell-based; conditions: 5 µM and higher (> 1 µM for ECGC), 10–20 µM
# [5] = molecular target: T1, ORF3a viroporin of SARS-CoV-2; assay: cell-based; conditions: IC50, reversing viroporin-induced cell damage
# [6] = test system: HEK293 cells transfected with ORF3a; assay type: cell-based
# [7] = test system: SARS-CoV; conditions: cited from earlier work
# [8] = test system: ORF3a of SARS-CoV; conditions: cited from earlier work
# [9] = test system: HCoV-OC43; conditions: cited from earlier work
# [10] = current–voltage recordings, result in words
Compound,activity against ORF3a (ORF3a-induced cytotoxicity) [1],"activity against ORF3a channel in patch-clamp [3, 10]",IC50 [3] [µM],IC50 [5],also measured
O=c1c(-c2ccc(O)cc2)coc2cc(O)cc(O)c12 [genistein],inactive,,,,inhibition of ORF3a activity of SARS-CoV [2]: do not
O=c1c(O)c(-c2ccc(O)c(O)c2)oc2cc(O)cc(O)c12 [quercetin],inhibitory activity,confirmed the inhibitory activity,0.0039 ± 0.0007,2.5 ± 0.2 µM,effect on viability of control cells (cytotoxic or proliferative effects) [4]: increased cell proliferation; effect on viability of control cells (cytotoxic or proliferative effects) ([4]; listed as Quercetin): increased cell viability
COc1ccc(-c2cc(=O)c3c(OC)c(OC)c(OC)c(OC)c3o2)cc1OC [nobiletin],inhibitory activity,confirmed the inhibitory activity,0.0018 ± 0.0003,3.8 ± 0.9 µM,effect on viability of control cells (cytotoxic or proliferative effects) [4]: increased cell proliferation; also recorded: increased cell viability; activity against ORF3a (ORF3a-induced cytotoxicity) ([1]; listed as Nobiletin): potent activity
"NC12CC3CC(CC(C3)C1)C2 [amantadine, reference compound]",,,0.0045 ± 0.0002,43.7 ± 11.1 µM,Percentage inhibition from MTT data at the highest inhibitor concentration ([1]; Fig. 4D): 78%
O=C1C[C@@H](c2ccc(O)cc2)Oc2cc(O)cc(O)c21 [naringenin],inactive,,,,inhibition of ORF3a activity of SARS-CoV [2]: do not
CCCCC[C@H](O)CC(=O)CCc1ccc(O)c(OC)c1 [6-gingerol],inactive,inactive,,,morphology of ORF3a-transfected cells after treatment [6]: morphology of dying cells; activity in the same expression system ([7]; Vero E6 cells): only low activity
O=c1c(O)c(-c2ccc(O)cc2)oc2cc(O)cc(O)c12 [kaempferol],inhibitory activity,,0.0024 ± 0.0005,5.2 µM and 5.23 µM,
O=c1cc(-c2ccc(O)cc2)oc2cc(O)cc(O)c12 [apigenin],inactive,,,,
epigallocatechin gallate [EGCG],inhibitory activity,confirmed the inhibitory activity,0.0007 ± 0.0001,,"effect on viability of control cells (cytotoxic or proliferative effects) [4]: increased cell proliferation; also recorded: increased cell viability; morphology of ORF3a-transfected cells after treatment [6]: healthy cells with normal morphology; IC50 ([1]; read-out: IC50, reversing viroporin-induced cell damage): 1.6 µM and 1.56 µM"
Cc1cc(O)c2c(c1)C(=O)c1cc(O)cc(O)c1C2=O [emodin],,,,,inhibition of ORF3a of SARS-CoV [8]: inhibitor; virus release [9]: able to repress virus release
Oc1ccc(/C=C/c2cc(O)cc(O)c2)cc1 [resveratrol],inhibitory activity,confirmed the inhibitory activity,0.0015 ± 0.0001,6.7 µM and 6.73 µM,Percentage inhibition from MTT data at the highest inhibitor concentration ([1]; Fig. 4D): 86%
COc1cc(/C=C/C(=O)CC(=O)/C=C/c2ccc(O)c(OC)c2)ccc1O [curcumin],,,,,activity against ORF3a channel in patch-clamp [3]: confirmed the inhibitory activity; Percentage inhibition from MTT data at the highest inhibitor concentration [1]: 72%; inhibition of viral replication ([7]; SARS-CoV infected Vero E6 cells): effectively inhibited viral replication
"CC(N)C12CC3CC(CC(C3)C1)C2 (stereo not shown) [rimantadine, reference compound]",,,,4.4 ± 1.3 µM,potency of rimantadine higher than that of amantadine ([3]; patch clamp experiments): approximately fourfold; potency of rimantadine higher than that of amantadine ([1]; cell viability assays): ~ tenfold
